Experiment [1] concerns the target T1, 5-hydroxytryptamine receptor 1D (Homo sapiens, UniProt P28221). In words: Binding affinity against 5-HT1D receptor.
Target sequence in this assay (P28221 whole entry): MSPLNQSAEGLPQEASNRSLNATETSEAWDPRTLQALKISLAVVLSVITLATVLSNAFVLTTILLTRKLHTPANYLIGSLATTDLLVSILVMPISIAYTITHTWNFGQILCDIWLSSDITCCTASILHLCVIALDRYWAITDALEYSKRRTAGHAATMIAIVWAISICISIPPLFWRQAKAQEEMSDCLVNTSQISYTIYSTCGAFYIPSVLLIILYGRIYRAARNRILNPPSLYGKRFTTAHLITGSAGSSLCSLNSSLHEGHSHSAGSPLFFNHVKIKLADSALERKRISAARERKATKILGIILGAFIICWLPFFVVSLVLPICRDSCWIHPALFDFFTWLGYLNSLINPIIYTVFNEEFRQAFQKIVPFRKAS
Experiment [2] addresses T1, 5-hydroxytryptamine receptor 1D. The experiment is described as follows: Binding affinity against 5-hydroxytryptamine 1D receptor.
Target sequence in this assay (P28221 whole entry, looked up): as the sequence (P28221 whole entry) above
Experiment [3] addresses T2, 5-hydroxytryptamine receptor 2A (Homo sapiens, UniProt P28223). In words: Binding affinity against 5-HT2A receptor.
Experiment [4] deals with T3, Alpha-2A adrenergic receptor (Homo sapiens, UniProt P08913).
T3 sequence (P08913 whole entry): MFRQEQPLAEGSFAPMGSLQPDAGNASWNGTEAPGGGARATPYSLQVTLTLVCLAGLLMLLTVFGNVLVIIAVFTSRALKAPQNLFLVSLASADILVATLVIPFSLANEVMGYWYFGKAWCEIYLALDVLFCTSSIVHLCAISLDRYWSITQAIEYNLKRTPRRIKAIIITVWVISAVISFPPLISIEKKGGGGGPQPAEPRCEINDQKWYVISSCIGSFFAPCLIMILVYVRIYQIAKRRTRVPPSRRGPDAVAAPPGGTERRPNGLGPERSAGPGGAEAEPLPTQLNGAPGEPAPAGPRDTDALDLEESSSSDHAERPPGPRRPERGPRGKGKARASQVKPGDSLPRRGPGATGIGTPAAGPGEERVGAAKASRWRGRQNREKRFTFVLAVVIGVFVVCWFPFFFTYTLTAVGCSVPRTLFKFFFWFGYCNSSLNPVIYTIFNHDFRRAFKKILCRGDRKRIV
In words: Binding affinity against Alpha-2A adrenergic receptor.

Experiment [5] addresses T4, Alpha-1A adrenergic receptor (Homo sapiens, UniProt P35348).
T4 sequence (P35348 whole entry): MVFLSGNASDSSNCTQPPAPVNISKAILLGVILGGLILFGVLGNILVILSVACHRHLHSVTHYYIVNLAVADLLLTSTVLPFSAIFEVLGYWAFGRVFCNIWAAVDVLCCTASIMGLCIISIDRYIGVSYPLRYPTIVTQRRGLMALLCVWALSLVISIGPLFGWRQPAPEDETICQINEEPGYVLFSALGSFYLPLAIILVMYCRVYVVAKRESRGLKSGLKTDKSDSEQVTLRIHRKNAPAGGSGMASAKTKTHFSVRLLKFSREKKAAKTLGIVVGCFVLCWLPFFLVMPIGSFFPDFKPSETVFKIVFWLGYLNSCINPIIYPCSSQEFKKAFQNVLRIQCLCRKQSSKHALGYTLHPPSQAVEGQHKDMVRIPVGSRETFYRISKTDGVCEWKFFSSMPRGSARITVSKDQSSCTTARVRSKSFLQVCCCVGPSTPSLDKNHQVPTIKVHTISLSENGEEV
The experiment is described as follows: Binding affinity against Alpha-1A adrenergic receptor.

A further experiment deals with D(2) dopamine receptor (Homo sapiens, UniProt P14416). The experiment is described as follows: Binding affinity against Dopamine receptor D2L.
In the next experiment the target is T5, D(4) dopamine receptor (Homo sapiens, UniProt P21917).
T5 sequence (P21917 whole entry): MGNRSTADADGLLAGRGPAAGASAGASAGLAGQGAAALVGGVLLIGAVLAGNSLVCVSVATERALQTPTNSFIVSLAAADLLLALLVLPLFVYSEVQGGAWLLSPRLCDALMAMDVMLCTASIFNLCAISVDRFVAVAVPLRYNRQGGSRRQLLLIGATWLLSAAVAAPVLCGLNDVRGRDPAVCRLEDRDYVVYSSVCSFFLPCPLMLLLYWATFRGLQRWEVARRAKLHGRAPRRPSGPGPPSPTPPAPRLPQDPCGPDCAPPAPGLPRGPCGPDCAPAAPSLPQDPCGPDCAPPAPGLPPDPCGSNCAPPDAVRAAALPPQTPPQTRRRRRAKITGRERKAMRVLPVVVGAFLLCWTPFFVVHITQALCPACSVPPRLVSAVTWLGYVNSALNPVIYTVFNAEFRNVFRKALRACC
The experiment is described as follows: Binding affinity against Dopamine receptor D4.

A further experiment addresses D(3) dopamine receptor (Homo sapiens, UniProt P35462). In words: Binding affinity against Dopamine receptor D3.
In a further experiment the target is Histamine H1 receptor (Homo sapiens, UniProt P35367). In words: Binding affinity against Histamine H1 receptor.
Experiment [6] relates to Mus musculus. In words: Activity in mCPP challenge test, disinhibition measurement after sc administration. It is filed as functional.
In experiment [7] the test system is Mus musculus. The experiment is described as follows: Activity in mCPP challenge test, exploration measurements after sc administration. The class given is functional.
Experiment [8] deals with T6, 5-hydroxytryptamine receptor 1A (Homo sapiens, UniProt P08908).
T6 sequence (P08908 whole entry): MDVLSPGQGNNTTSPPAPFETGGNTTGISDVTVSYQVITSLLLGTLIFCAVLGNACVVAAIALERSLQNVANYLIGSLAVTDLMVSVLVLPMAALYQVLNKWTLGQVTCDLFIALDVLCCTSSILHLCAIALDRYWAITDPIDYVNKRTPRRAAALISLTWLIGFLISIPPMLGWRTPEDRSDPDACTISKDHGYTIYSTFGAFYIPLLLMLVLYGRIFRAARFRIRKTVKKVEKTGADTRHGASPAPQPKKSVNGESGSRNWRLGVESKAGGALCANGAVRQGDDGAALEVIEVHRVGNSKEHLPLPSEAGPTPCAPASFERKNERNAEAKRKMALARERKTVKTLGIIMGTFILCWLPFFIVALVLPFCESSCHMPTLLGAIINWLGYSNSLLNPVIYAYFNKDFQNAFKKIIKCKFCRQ
In words: Binding affinity against 5-HT1A receptor.

In experiment [9] the target is T7, 5-hydroxytryptamine receptor 2C (Homo sapiens, UniProt P28335).
T7 sequence (P28335 whole entry): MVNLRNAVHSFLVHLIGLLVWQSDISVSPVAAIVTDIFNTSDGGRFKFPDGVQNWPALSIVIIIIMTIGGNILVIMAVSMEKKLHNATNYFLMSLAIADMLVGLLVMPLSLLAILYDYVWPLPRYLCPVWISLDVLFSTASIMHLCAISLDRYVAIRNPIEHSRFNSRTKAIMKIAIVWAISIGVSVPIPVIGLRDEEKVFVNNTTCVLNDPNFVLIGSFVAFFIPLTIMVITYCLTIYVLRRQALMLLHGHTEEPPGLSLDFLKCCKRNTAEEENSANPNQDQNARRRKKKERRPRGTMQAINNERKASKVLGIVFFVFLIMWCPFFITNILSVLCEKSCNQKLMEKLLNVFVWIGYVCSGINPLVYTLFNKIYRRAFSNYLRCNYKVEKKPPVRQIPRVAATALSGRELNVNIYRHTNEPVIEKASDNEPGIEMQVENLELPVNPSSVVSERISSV
In words: Binding affinity against 5-HT2C receptor.

Experiment [10] has as its target T2, 5-hydroxytryptamine receptor 2A. In words: Binding affinity against 5-hydroxytryptamine 2A receptor.

As a reminder, the IC50 is the concentration that gives 50% inhibition. Read a low IC50 as greater potency in that assay. By ED50 is commonly meant the dose at which the effect has come halfway, by size or by number of responders. Higher therefore signals a need for a large dose.

Bounds are passed on as bounds.

Histamine H1 receptor, sequence (P35367 whole entry): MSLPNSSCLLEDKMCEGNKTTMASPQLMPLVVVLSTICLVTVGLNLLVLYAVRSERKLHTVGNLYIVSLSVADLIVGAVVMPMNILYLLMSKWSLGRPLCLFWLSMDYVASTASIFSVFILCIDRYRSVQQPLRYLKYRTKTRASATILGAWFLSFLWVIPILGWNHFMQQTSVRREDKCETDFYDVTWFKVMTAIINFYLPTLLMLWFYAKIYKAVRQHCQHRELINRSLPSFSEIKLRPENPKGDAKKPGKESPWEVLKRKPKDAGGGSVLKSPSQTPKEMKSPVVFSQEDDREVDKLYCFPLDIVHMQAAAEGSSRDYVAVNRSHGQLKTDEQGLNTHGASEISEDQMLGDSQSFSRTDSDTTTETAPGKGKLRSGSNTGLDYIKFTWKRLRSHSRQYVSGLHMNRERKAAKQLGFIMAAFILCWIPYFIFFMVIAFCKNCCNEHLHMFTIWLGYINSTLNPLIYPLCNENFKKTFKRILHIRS
T2 sequence (P28223 whole entry): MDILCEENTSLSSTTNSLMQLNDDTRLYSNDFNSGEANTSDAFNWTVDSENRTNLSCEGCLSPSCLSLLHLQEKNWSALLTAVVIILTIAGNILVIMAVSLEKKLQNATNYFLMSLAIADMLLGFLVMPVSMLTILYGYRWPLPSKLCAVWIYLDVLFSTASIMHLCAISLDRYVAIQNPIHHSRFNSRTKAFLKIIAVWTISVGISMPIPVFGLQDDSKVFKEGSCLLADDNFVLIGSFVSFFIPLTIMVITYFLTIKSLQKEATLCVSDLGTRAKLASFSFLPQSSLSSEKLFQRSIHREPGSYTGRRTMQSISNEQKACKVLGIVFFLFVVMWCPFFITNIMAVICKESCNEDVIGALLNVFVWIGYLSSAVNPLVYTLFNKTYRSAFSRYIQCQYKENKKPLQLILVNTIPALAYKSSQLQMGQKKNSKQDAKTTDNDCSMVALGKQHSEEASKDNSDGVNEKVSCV
D(2) dopamine receptor, sequence (P14416 whole entry): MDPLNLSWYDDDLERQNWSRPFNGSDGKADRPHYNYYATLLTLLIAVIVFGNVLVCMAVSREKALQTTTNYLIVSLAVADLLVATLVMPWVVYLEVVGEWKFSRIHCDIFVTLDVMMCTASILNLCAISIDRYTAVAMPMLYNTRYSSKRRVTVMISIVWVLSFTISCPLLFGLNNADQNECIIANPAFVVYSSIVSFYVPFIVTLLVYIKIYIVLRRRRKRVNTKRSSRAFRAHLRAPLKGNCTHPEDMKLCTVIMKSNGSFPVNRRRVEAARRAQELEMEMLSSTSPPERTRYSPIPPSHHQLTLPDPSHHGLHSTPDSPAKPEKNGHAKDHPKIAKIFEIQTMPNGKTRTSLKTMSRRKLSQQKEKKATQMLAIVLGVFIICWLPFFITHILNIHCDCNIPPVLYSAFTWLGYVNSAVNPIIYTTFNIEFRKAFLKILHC
D(3) dopamine receptor, sequence (P35462 whole entry): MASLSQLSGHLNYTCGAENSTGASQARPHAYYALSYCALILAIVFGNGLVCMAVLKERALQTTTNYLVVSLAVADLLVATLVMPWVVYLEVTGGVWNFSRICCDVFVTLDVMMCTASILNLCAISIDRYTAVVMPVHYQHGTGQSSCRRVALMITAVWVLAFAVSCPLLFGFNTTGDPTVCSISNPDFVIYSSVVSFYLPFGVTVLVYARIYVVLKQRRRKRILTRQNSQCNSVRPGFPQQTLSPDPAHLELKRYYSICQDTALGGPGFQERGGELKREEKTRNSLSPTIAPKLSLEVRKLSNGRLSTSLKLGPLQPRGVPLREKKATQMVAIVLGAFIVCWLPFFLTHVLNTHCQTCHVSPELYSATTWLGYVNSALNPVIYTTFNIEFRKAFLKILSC

In the case of `CN(C)CC1CC2c3cccnc3Cc3ccccc3N2O1` (stereo not given), the IC50 in experiment [1] is more than 1 µM; in [2], 0.912 µM; in experiment [3], more than 1 µM; in [4], more than 1 µM; in experiment [5], more than 1 µM; on D(2) dopamine receptor, more than 1 µM. Moreover, the concentration for half-maximal inhibition (IC50) at D(4) dopamine receptor is more than 1 µM; at D(3) dopamine receptor, more than 1 µM; at Histamine H1 receptor it was 0.0166 µM; in [8] it was more than 1 µM. Further, the ED50 with Mus musculus [6] and in the experiment with Mus musculus [7] was less than 2.5 mg/kg each time.

In the case of `CN(C)CC1CC2c3ccccc3Cc3ccc(Cl)cc3N2O1` (stereo not given), the half-inhibitory concentration (IC50) in experiment [9] was 0.00105 µM; in experiment [5], 0.0145 µM; on D(4) dopamine receptor, 0.00263 µM; at Histamine H1 receptor it was 0.00234 µM. The median effective dose (ED50) in the experiment with Mus musculus [6] was 0.16 mg/kg; with Mus musculus [7], more than 2.5 mg/kg.

As for `CN(C)CC1CC2c3ccccc3Cc3ccncc3N2O1` (stereo not given), the half-inhibitory concentration (IC50) in experiment [10] was 0.389 µM; in [9], 0.0126 µM; in experiment [4], more than 1 µM; in [5] it was 0.398 µM; at D(2) dopamine receptor, 1.91 µM; at D(4) dopamine receptor, 0.251 µM. Also, the IC50 is 1.66 µM on D(3) dopamine receptor and more than 1 µM at Histamine H1 receptor. The 50% effective dose (ED50) was found to be 0.16 mg/kg with Mus musculus [6] and 2.5 mg/kg with Mus musculus [7].

Consider `CN(C)CC1CC2c3ccccc3Cc3ccccc3N2O1` (stereo not given), for which the results for the ED50 in the experiment with Mus musculus [6] and in the experiment on Mus musculus [7] were 0.01 mg/kg and more than 2.5 mg/kg, respectively.

The values above are taken from ChEMBL document CHEMBL1135009, “2-(Dimethylaminomethyl)-tetrahydroisoxazolopyridobenzazepine derivatives. Synthesis of a new 5-HT(2C) antagonist with potential anxiolytic properties” (Bioorg Med Chem Lett, 2002).
